Target: Human DAAO enzyme (Homo sapiens, UniProt P14920)
Assay: In Vitro DAAO Enzyme Assay (Amplex Red detection of H2O2 from D-Serine)
Type: biochemical
Conditions: inhibition of DAAO activity in the presence of 10 mM D-Serine; 60 minutes at 25° C.; ten point dose-response
Procedure: The Km of D-Serine was measured for each enzyme batch to maintain consistency; this Km was used in subsequent assays.
On the day of the assay compounds were serially diluted in DMSO before being diluted 1:20 with assay buffer (20 mM Tris ph 7.4). […] Finally 5 μl ‘Amplex’ red reagent (Invitrogen) was added to all wells as per manufacturer's protocol. The plate was incubated for 60 minutes in the dark at 25° C. and the fluorescence in each well was measured in the Envision plate reader.
Concentration response curves were generated using the average of duplicate wells for each data point and analyzed using non-linear regression and four parameter curve fit.

Human DAAO enzyme, sequence (P14920 whole entry): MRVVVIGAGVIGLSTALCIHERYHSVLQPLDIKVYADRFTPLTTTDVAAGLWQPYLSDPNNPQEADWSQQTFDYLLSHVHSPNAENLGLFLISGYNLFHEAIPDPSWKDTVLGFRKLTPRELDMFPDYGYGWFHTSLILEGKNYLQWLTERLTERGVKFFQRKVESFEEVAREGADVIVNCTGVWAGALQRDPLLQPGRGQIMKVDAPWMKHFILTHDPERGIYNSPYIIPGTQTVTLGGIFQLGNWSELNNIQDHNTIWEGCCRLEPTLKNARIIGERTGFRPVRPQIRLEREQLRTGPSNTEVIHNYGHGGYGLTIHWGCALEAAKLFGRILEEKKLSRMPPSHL

| SMILES | IC50 |
| --- | --- |
| O=c1[nH]nc(CCc2cccc(OC(F)(F)F)c2)cc1O [Example 10, 4-Hydroxy-6-{2-[3-(trifluoromethoxy)phenyl]ethyl}pyridazin-3(2H)-one] | 22 nM |
| O=c1[nH]nc(CCc2cncc(C(F)(F)F)c2)cc1O [Example 12, 4-Hydroxy-6-{2-[5-(trifluoromethyl)pyridin-3-yl]ethyl}pyridazin-3(2H)-one] | 23 nM |

From patent US20130052281A1, “NOVEL COMPOUNDS” (Takeda Pharmaceutical Company Limited, priority 2011, published 2013)
